Earlier results, collected in paper PMC6978833 (ACS Central Science, 2019).

Conditions: N3 of base in TAT / CGC triplets

pKa (N3 protonation)	Structure (SMILES)
~10	Cc1c[nH]c(=O)[nH]c1=O [thymine]
~6.5	Nc1cc[nH]c(=O)n1 [cytosine]
